This note sets out measurements from patent US20090176811A1, “Substituted 5,6,7,8-Tetrahydro-pyrido[4,3-d]pyrimidine-2-yl Compounds and 5,6,7,8-Tetrahydro-quinazoline-2-yl Compounds” (GRUENENTHAL GmbH, priority 2004, published 2009).

As a reminder, the inhibition is the change of the read-out against control, counted positive when it falls. A low value points to a response near the control.

The target of the assay is T1, 5-HT transporter (Rattus norvegicus, UniProt P31652).
T1 construct: from tissue; host or cells: rat medulla and pons synaptosomes (P2 fraction)
T1 sequence (P31652 whole entry): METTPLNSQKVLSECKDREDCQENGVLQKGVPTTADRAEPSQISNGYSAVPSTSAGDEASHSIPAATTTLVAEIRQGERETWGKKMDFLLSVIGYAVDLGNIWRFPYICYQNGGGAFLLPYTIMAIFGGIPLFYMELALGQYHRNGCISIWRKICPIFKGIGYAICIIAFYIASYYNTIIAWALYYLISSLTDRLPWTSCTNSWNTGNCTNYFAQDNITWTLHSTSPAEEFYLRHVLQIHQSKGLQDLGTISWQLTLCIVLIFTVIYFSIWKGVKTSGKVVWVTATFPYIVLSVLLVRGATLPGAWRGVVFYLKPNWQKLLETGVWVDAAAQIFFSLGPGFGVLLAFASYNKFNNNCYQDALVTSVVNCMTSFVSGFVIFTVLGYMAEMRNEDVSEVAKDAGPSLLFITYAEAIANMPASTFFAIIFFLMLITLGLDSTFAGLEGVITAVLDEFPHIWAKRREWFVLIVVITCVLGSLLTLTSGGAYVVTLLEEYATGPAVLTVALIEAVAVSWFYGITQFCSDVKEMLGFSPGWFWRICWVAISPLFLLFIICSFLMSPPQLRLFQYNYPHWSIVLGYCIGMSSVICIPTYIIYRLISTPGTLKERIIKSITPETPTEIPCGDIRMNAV
The experiment in a line: 5-HT uptake inhibition in rat brain synaptosomes (medulla and pons). The class given is biochemical. The source says:
I. Method for Determining Noradrenalin and 5-HT Uptake Inhibition:
Synaptosomes from rat brain regions are freshly isolated for in vitro studies, as described in the publication “The isolation of nerve endings from brain” by E. G. Gray and V. P. Whittaker, J. Anatomy 96, pages 79-88, 1962. The corresponding literature description is hereby introduced as a reference and is deemed to be part of the disclosure.
The tissue (hypothalamus for the determination of noradrenalin uptake inhibition and medulla and pons for the determination of 5-HT uptake inhibition) is homogenised in ice-cooled 0.32 M sucrose (100 mg of tissue/1 mL) in a glass homogeniser with Teflon pestle using five complete up and down strokes at 840 revolutions/minute.
The homogenate is centrifuged at 4° C. for 10 minutes at 1000 g. After subsequent centrifugation at 17000 g for 55 minutes, the synaptosomes (P2 fraction) are obtained, which are resuspended in 0.32 M […] (0.5 mL/100 mg of original weight).
The particular uptake is measured in a 96-well microtitre plate. The volume is 250 μl and the incubation proceeds at room temperature (approx. 20-25° C.) under an O2 atmosphere.
The incubation time is 7.5 minutes for [^3H]-NA and 5 minutes for [^3H]-5-HT.
The 96 samples are then filtered through a Unifilter GF/B microtitre plate (Packard) and washed with 200 mL of incubated buffer using a “Brabdel MPXRI-96T Cell-Harvester”. The Unifilter GF/B plate is dried for 1 hour at 55° C. The plate is then sealed with a Back seal (Packard) and 35 μl of scintillation fluid are added per well (Ultima Gold, Packard). After sealing with a top seal (Packard) and establishing an equilibrium (around 5 hours), radioactivity is determined in a “Trilux 1450 Microbeta” (Wallac).
The quantity of protein used in the above determination corresponds to the values known from the literature, as for example described in “Protein measurement with the folin phenol reagent”, Lowry et al., J. Biol. Chem., 193, 265-275, 1951.
A detailed description of the method may additionally be found in the literature, for example in M. Ch. Frink, H.-H. Hennies, W. Engelberger, M. Haurand and B. Wilffert (1996) Arzneim.-Forsch./Drug Res. 46 (III), 11, 1029-1036.
The corresponding literature descriptions are hereby introduced in each case as a reference and are deemed to be part of the present disclosure.
The following characteristics were determined for the NA or 5-HT transporter: […]
`O=C(Nc1ncc2c(n1)CCC(NS(=O)(=O)Cc1ccccc1)C2)c1cccs1` (stereo not drawn) [Example 165, thiophene-2-carboxylic acid (6-phenylmethanesulfonylamino-5,6,7,8-tetrahydro-quinazolin-2-yl)-amide] had an inhibition at 1 µM of 35%.
In the case of `CCCS(=O)(=O)NC1CCc2nc(NC(=O)c3ccc(F)cc3)ncc2C1` (stereo not drawn) [Example 160, 4-fluoro-N-[6-(propane-1-sulfonylamino)-5,6,7,8-tetrahydro-quinazolin-2-yl]-benzamide] it was 40%.
Molecule `O=C(NC1CCc2nc(NC(=O)c3cccs3)ncc2C1)c1cc(F)cc(F)c1` (stereo not drawn) [Example 97, thiophene-2-carboxylic acid [6-(3,5-difluoro-benzoylamino)-5,6,7,8-tetrahydro-quinazolin-2-yl]-amide] gave an inhibition at 1 µM of 30%.
The result for `Cc1ccc([N+](=O)[O-])cc1S(=O)(=O)N1CCc2nc(NC(=O)c3ccccc3F)ncc2C1` [Example 150, 2-fluoro-N-[6-(2-methyl-5-nitro-benzenesulfonyl)-5,6,7,8-tetrahydro-pyrido[4,3-d]pyrimidin-2-yl]-benzamide] reads 54%.
The result for `CCCC(=O)Nc1ncc2c(n1)CCC(NS(=O)(=O)CC13CCC(CC1=O)C3(C)C)C2` (stereo not drawn) [Example 162, N-[6-(7,7-dimethyl-2-oxo-bicyclo[2.2.1]hept-1-ylmethanesulfonylamino)-5,6,7,8-tetrahydro-quinazolin-2-yl]-butyramide] reads 29%; that for `CC(C)(C)OC(=O)NCCC(=O)NC1CCc2nc(NC(=O)c3cccs3)ncc2C1` (stereo not drawn) [Example 149, (2-{2-[(thiophene-2-carbonyl)-amino]-5,6,7,8-tetrahydro-quinazolin-6-ylcarbamoyl}-ethyl)-carbamic acid tert-butyl ester], 32%; that for `CCN(CC)C(=O)CCC(=O)N1CCc2nc(NC(=O)c3cc(Cl)cc(Cl)c3)ncc2C1` [Example 171, 3,5-dichloro-N-[6-(3-diethylcarbamoyl-propionyl)-5,6,7,8-tetrahydro-pyrido[4,3-d]pyrimidin-2-yl]-benzamide], 32%.
On to `CCCC(=O)Nc1ncc2c(n1)CCC(NS(=O)(=O)c1ccc(C(C)(C)CC)cc1)C2` (stereo not drawn) [Example 167, N-{6-[4-(1,1-dimethyl-propyl)-benzenesulfonylamino]-5,6,7,8-tetrahydro-quinazolin-2-yl}-butyramide], for which 1 µM produced 32% inhibition.
The result for `CCc1ccc(C(=O)Nc2ncc3c(n2)CCN(C(=O)c2ccc4ncccc4c2)C3)cc1` [Example 173, 4-ethyl-N-[6-(quinoline-6-carbonyl)-5,6,7,8-tetrahydro-pyrido[4,3-d]pyrimidin-2-yl]-benzamide] reads 69%.
`CC1(C)C2CCC1(CS(=O)(=O)N1CCc3nc(NC(=O)c4cccc(F)c4)ncc3C1)C(=O)C2` (stereo not drawn) [Example 102, N-[6-(7,7-dimethyl-2-oxo-bicyclo[2.2.1]hept-1-ylmethanesulfonyl)-5,6,7,8-tetrahydro-pyrido[4,3-d]pyrimidin-2-yl]-3-fluoro-benzamide] came in with an inhibition at 1 µM of 63%.
In the case of `O=C(Nc1ncc2c(n1)CCN(C(=O)c1cc(F)cc3c1OCOC3)C2)c1ccccc1C(F)(F)F` [Example 103, N-[6-(6-fluoro-4H-benzo[1,3]dioxin-8-carbonyl)-5,6,7,8-tetrahydro-pyrido[4,3-d]pyrimidin-2-yl]-2-trifluoromethyl-benzamide] it was 65%; in that of `Cc1ccc(C(=O)Nc2ncc3c(n2)CCN(C(=O)c2ccc(SC(F)(F)F)cc2)C3)cc1` [Example 148, 4-methyl-N-[6-(4-trifluoromethylsulfanyl-benzoyl)-5,6,7,8-tetrahydro-pyrido[4,3-d]pyrimidin-2-yl]-benzamide], 32%.
